# Assays:
# S. aureus, PDF enzyme = biological target: T1, S. aureus, PDF enzyme (Staphylococcus aureus, UniProt P68826); assay: Bacterial peptide deformylase (PDF) assay, colorimetric cell free, f-Met-Ala substrate, TNBS detection at 420 nm; format: biochemical; conditions: means of three experiments; 30 minutes at room temperature, pH 7.2; read-out: PDF enzyme inhibitory activity IC50, S. aureus, PDF enzyme
# T1 sequence (P68826 1-183): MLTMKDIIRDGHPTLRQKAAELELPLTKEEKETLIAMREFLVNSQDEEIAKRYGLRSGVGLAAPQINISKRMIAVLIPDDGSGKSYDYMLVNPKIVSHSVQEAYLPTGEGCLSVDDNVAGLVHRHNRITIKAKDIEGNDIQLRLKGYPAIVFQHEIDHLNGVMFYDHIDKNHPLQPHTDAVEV
# Source text: To find inhibitors of Peptide Deformylase (PDF), a colorimetric cell free assay for measuring the enzymatic activity of PDF has been adapted to the microtiter plate format (96 wells). The assay comprises three components, purified PDF, f-Met-Ala as substrate and TNBS as the detecting agent of primary amino groups. The resulting TNP-NH-Met-Ala sulfite complex can be detected at 420 nm. PDF enzymes, containing Fe^2+ as the native metal, are purified and are stabilized by the addition of tris(2-carboxyethyl)phosphine (TCEP).
# (§1) The IC50 value of a compound of the invention as a bacterial PDF inhibitor was determined using the following assay.
# (§2) Assay buffer: 0.1M MOPS pH was adjusted to 7.2 with NaOH, containing 0.25 M NaCl, 100 μg/mL catalase and 1 mg/mL BSA.
# S. aureus (15 mg/ml) 10 μl+990 μl Assay buffer, 0.3 μl per ml enzyme mix.
# (§3) Substrate mix: 10 mM f-Met-Ala was made up from 200 mM f-Met-Ala in methanol with assay buffer.
# (§4) TNBS solution: Freshly dilute 1 M TNBS stock solution diluted 1:10 with water.
# (§5) Buffer C, 0.5 M borate buffer adjusted to pH 9.5 with NaOH.
# (§6) Buffer D: 0.2 ml of freshly prepared 0.5 M Na2SO3 was mixed with 9.8 mL of 0.5M NaH2PO4.
# (§7) Inhibitor solution: 2 mM Sodium 4-(hydroxymercurio) benzoate in assay buffer.
# (§8) Compound mix: Compound of formula I dissolved in DMSO in a 10 mg/mL stock solution. Further dilutions were made in DMSO in the concentration range between 0.05 to 100 mM.
# The assay was performed in a 96 Microtiter plate containing test compound. To each well containing test compound mix was added 75 microliter of enzyme mix followed by the addition of 25 microliter of substrate mix. The resulting mix was incubated for 30 minutes at room temperature with shaking. TNBS solution (50 microliter/well) was added and the resulting mixture was incubated for 15 minutes under shaking. Buffer C was then added (20 microliter/well). After incubating at room temperature for 15 minutes under shaking, buffer D was added (50 microliter/well). The optical […] was then measured at 420 nm, thereby determining the IC50 value.
# E. coli, PDF enzyme = E. coli, PDF enzyme (Escherichia coli, UniProt P0A6K3); assay: as above; format: biochemical
# Procedure: The assay comprises three components, purified PDF, f-Met-Ala as substrate and TNBS as the detecting agent of primary amino groups. The resulting TNP-NH-Met-Ala sulfite complex can be detected at 420 nm. PDF enzymes, containing Fe^2+ as the native metal, are purified and are stabilized by the addition of tris(2-carboxyethyl)phosphine (TCEP).
# as §1, §2
# E. coli enzyme (2.5 mg/ml) 10 μl+290 μl Assay buffer, 1 μl per ml enzyme mix.
# as §3, §4, §5, §6, §7, §8
# The assay was performed in a 96 Microtiter plate containing test compound. […] The optical diffraction was then measured at 420 nm, thereby determining the IC50 value.
# E. coli, PDF enzyme, sequence (P0A6K3 whole entry): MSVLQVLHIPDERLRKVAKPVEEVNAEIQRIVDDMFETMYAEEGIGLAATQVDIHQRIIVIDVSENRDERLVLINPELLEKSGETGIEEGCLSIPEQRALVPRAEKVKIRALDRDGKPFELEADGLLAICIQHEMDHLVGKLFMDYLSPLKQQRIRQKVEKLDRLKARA
Structure (SMILES),melting point,"IC50 (S. aureus, PDF enzyme) [nM]","IC50 (E. coli, PDF enzyme) [nM]"
O=C(NO)c1cc(CSc2ccccc2OC(F)(F)F)on1,108 to 109 °C (dec.),–,–
O=C(NO)c1cc(CSc2nccc(-c3cccs3)n2)on1,165 to 168 °C (dec.),–,–
"O=C(NO)c1cc(CSc2cccc(Cl)c2)on1 [Example 3, 5-(3-Chloro-phenylsulfanylmethyl)-isoxazole-3-carboxylic acid hydroxyamide]",105 to 107 °C (dec.),2300,–
"O=C(NO)c1cc(CSc2ccccc2Br)on1 [Example 6, 5-(2-Bromo-phenylsulfanylmethyl)-isoxazole-3-carboxylic acid hydroxyamide]",135 to 136 °C (dec.),4900,–
"O=C(NO)c1cc(CSc2ccc(C(F)(F)F)cc2)on1 [Example 13, 5-(4-Trifluoromethyl-phenylsulfanylmethyl)-isoxazole-3-carboxylic acid hydroxyamide]",129 °C,8700,–
"Cc1ccc([S+]([O-])Cc2cc(C(=O)NO)no2)cc1 (stereo not shown) [Example 38, 5-(4-Toluenesulfinylmethyl)-isoxazole-3-carboxylic acid hydroxyamide]",–,900,–
"Cc1ccc(S(=O)(=O)Cc2cc(C(=O)NO)no2)cc1 [Example 33, 5-(4-Toluenesulfonylmethyl)-isoxazole-3-carboxylic acid hydroxyamide]",–,1400,11500
"COc1cccc(S(=O)(=O)Cc2cc(C(=O)NO)no2)c1 [Example 37, 5-(3-Methoxy-benzenesulfonylmethyl)-isoxazole-3-carboxylic acid hydroxyamide]",–,6500,–
"CC(C)c1ccccc1S(=O)(=O)Cc1cc(C(=O)NO)no1 [Example 36, 5-(2-Isopropyl-benzenesulfonylmethyl)-isoxazole-3-carboxylic acid hydroxyamide]",170 °C (dec.),3400,–
"O=C(NO)c1cc(CSc2cccc(Br)c2)on1 [Example 7, 5-(3-Bromo-phenylsulfanylmethyl)-isoxazole-3-carboxylic acid hydroxyamide]",104 to 105 °C,2000,–
"O=C(NO)c1cc(CS(=O)(=O)c2ccc(Cl)cc2)on1 [Example 34, 5-(4-Chloro-benzenesulfonylmethyl)-isoxazole-3-carboxylic acid hydroxyamide]",–,800,–
"O=C(NO)c1cc(CSc2ccccc2Cl)on1 [Example 4, 5-(2-Chloro-phenylsulfanylmethyl)-isoxazole-3-carboxylic acid hydroxyamide]",141 to 143 °C (dec.),3800,–
"O=C(NO)c1cc(CSCc2cccc(C(F)(F)F)c2)on1 [Example 17, 5-(3-Trifluoromethyl-benzylsulfanylmethyl)-isoxazole-3-carboxylic acid hydroxyamide]",109 to 110 °C,2200,–
"CC(C)c1ccccc1SCc1cc(C(=O)NO)no1 [Example 8, 5-(2-Isopropyl-phenylsulfanylmethyl)-isoxazole-3-carboxylic acid hydroxyamide]",121 to 123 °C (dec.),7600,–
"Cc1cc(C)c(SCc2cc(C(=O)NO)no2)c(C)c1 [Example 9, 5-(2,4,6-Trimethyl-phenylsulfanylmethyl)-isoxazole-3-carboxylic acid hydroxyamide]",133 to 135 °C (dec.),37700,–
"O=C(NO)c1cc(CSc2ccc(F)cc2)on1 [Example 12, 5-(4-Fluoro-phenylsulfanylmethyl)-isoxazole-3-carboxylic acid hydroxyamide]",98 to 99 °C (dec.),1500,–
"O=C(NO)c1cc(CSCc2cc3ccccc3s2)on1 [Example 16, 5-(Benzothiophen-2-ylmethylsulfanylmethyl)-isoxazole-3-carboxylic acid hydroxyamide]",143 to 145 °C (dec.),12700,–
CC(c1cc(C(=O)NO)no1)S(=O)(=O)c1ccc(Cl)cc1 (stereo not shown),162 °C (dec.),–,–
"O=C(NO)c1cc(CSc2ccccc2C(F)(F)F)on1 [Example 14, 5-(2-Trifluoromethyl-phenylsulfanylmethyl)-isoxazole-3-carboxylic acid hydroxyamide]",140 to 144 °C (dec.),9300,–
"COc1cccc(SCc2cc(C(=O)NO)no2)c1 [Example 11, 5-(3-Methoxy-phenylsulfanylmethyl)-isoxazole-3-carboxylic acid hydroxyamide]",116 °C,2200,–
"O=C(NO)c1cc(CS(=O)(=O)c2cccc(Cl)c2)on1 [Example 35, 5-(3-Chloro-benzenesulfonylmethyl)-isoxazole-3-carboxylic acid hydroxyamide]",–,1700,–
"O=C(NO)c1cc(CSc2ccc(Cl)c(Cl)c2)on1 [Example 5, 5-(3,4-Dichloro-phenylsulfanylmethyl)-isoxazole-3-carboxylic acid hydroxyamide]",99 to 102 °C (dec.),2000,–
"Cc1ccc(SCc2cc(C(=O)NO)no2)cc1 [Example 1, 5-(4-Toluenesulfanylmethyl)-isoxazole-3-carboxylic acid hydroxyamide]",94 to 96 °C (dec.),4000,–
"O=C(NO)c1cc(CSc2ccc(Cl)cc2)on1 [Example 2, 5-(4-Chloro-phenylsulfanylmethyl)-isoxazole-3-carboxylic acid hydroxyamide]",–,1300,–

# From patent US20070043062A1, “Isoxazoles as peptide deformylase inhibitors” (Arpida A/S, priority 2003, published 2007)
